According to patent US9796711B2, “Substituted pyrazolo[3,4-b]pyridin-6-carboxylic acids and method of use” (AbbVie S.àr.l., priority 2015, dated 2017):
pEC50: −log10 of the molar value.

Experiments:
[1] = molecular target: T1, ΔF508-CFTR (Homo sapiens, UniProt P13569, DEL508-508); test: CFTR cell surface levels using HRP-tagged ΔF508-CFTR expressing CFBE cells, in the presence of a co-corrector; format: cell-based; conditions: HRP-tagged ΔF508-CFTR expressing CFBE cells, in the presence of 3 μM co-corrector; for pEC50: read-out: EC50
T1 construct: host or cells: CFBE41o-, doxycycline-inducible
Procedure, shortened: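 Cells were seeded with 0.5 μg/mL doxycycline and held 68 h at 37 °C. Test compounds plus 3 μM co-corrector (final 0.1% DMSO) were then added for 20 h at 33 °C. Washed cells received HRP substrate, and luminescence was normalized between DMSO and 3 μM co-corrector controls.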

[2] = molecular target: T1, ΔF508-CFTR; test: CFTR cell surface levels using HRP-tagged ΔF508-CFTR expressing CFBE cells, intrinsic corrector capacity; format: cell-based; conditions: HRP-tagged ΔF508-CFTR expressing CFBE cells, intrinsic corrector capacity (no co-corrector), 33° C., 20 hours; for pEC50: read-out: EC50
Procedure, shortened: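 Here the cells express ΔF508-CFTR with horseradish peroxidase inserted in extracellular loop 4, so only rescued channel at the surface gives luminescent signal. Compounds act on their own, 20 h at the reduced temperature of 33 °C; values are percent activity relative to DMSO and a 3 μM corrector.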

T1 sequence (P13569 with tags, fused parts or gaps DEL508-508): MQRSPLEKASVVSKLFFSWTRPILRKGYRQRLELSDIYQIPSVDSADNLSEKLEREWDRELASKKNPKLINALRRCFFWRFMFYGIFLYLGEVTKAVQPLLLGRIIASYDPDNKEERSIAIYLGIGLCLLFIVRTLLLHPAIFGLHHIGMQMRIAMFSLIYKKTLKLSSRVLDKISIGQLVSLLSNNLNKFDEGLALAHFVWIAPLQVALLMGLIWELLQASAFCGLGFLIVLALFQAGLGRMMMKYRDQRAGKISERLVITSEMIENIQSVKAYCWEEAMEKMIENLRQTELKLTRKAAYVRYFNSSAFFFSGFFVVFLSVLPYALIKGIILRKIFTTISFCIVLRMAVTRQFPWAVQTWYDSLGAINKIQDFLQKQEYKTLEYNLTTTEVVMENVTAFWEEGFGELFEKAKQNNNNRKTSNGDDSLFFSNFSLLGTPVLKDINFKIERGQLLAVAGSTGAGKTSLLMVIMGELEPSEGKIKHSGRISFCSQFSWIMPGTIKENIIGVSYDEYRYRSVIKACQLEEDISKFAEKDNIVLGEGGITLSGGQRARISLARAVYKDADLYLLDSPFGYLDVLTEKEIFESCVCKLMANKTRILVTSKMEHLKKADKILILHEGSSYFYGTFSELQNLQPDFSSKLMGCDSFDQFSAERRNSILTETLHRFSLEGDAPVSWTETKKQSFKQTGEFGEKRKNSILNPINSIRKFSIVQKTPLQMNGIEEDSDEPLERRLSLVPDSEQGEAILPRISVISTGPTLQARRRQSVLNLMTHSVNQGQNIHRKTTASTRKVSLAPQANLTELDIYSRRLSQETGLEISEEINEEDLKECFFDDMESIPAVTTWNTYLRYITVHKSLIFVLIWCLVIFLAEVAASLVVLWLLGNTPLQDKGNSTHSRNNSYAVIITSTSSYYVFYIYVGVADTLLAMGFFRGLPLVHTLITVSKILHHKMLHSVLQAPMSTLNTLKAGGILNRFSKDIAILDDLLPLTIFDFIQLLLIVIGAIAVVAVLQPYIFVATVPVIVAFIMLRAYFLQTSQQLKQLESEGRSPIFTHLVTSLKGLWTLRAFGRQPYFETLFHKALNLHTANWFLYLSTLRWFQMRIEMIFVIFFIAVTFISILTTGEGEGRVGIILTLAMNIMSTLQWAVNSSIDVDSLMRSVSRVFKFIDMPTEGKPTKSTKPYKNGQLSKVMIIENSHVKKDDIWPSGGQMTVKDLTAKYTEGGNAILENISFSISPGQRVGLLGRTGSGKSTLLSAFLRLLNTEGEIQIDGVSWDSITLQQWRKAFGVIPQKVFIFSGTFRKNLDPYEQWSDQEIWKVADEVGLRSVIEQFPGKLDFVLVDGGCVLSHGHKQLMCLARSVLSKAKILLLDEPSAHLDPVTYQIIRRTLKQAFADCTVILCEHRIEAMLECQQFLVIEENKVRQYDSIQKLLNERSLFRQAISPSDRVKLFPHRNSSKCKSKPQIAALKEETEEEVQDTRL

Compound	% Activation [1]	pEC50 [1]	% Activation [2]	pEC50 [2]
O=C(O)c1cc(N2CCC(N3CCC(F)C3)CC2)c2c(C3CCC3)nn(-c3ccc(F)cc3)c2n1 (centres unmarked) [compound 846, 3-cyclobutyl-1-(4-fluorophenyl)-4-[4-(3-fluoropyrrolidin-1-yl)piperidin-1-yl]-1H-pyrazolo[3,4-b]pyridine-6-carboxylic acid]	495.1%	6.01	317.9%	6.06
N#CC1CN(C2CCN(c3cc(C(=O)O)nc4c3c(C3CCC3)nn4-c3ccc(F)cc3)CC2)C1 [compound 847, 4-[4-(3-cyanoazetidin-1-yl)piperidin-1-yl]-3-cyclobutyl-1-(4-fluorophenyl)-1H-pyrazolo[3,4-b]pyridine-6-carboxylic acid]	503.8%	6.54	279.1%	6.27
COC1CCN(C2CCN(c3cc(C(=O)O)nc4c3c(C3CCC3)nn4-c3ccc(F)cc3)CC2)C1 (centres unmarked) [compound 848, 3-cyclobutyl-1-(4-fluorophenyl)-4-[4-(3-methoxypyrrolidin-1-yl)piperidin-1-yl]-1H-pyrazolo[3,4-b]pyridine-6-carboxylic acid]	405.2%	6.37	249%	5.92
O=C(O)c1cc(N2CCC(N3CCC(F)(F)CC3)CC2)c2c(C3CCC3)nn(-c3ccc(F)cc3)c2n1 [compound 850, 3-cyclobutyl-4-(4,4-difluoro[1,4′-bipiperidin]-1′-yl)-1-(4-fluorophenyl)-1H-pyrazolo[3,4-b]pyridine-6-carboxylic acid]	615.6%	7.05	234.4%	7.13
N#CC1CN(C2CCN(c3cc(C(=O)O)nc4c3c(C3CCC3)nn4-c3ccc(F)cc3)CC2)CCO1 (centres unmarked) [compound 851, 4-[4-(2-cyanomorpholin-4-yl)piperidin-1-yl]-3-cyclobutyl-1-(4-fluorophenyl)-1H-pyrazolo[3,4-b]pyridine-6-carboxylic acid]	559.8%	6.91	342.9%	6.61
O=C(O)c1cc(N2CCC(N3CC4CC3CO4)CC2)c2c(C3CCC3)nn(-c3ccc(F)cc3)c2n1 (centres unmarked) [compound 852, 3-cyclobutyl-1-(4-fluorophenyl)-4-[4-(2-oxa-5-azabicyclo[2.2.1]heptan-5-yl)piperidin-1-yl]-1H-pyrazolo[3,4-b]pyridine-6-carboxylic acid]	391.4%	5.48	120.6%	5.77
COCC1CN(C2CCN(c3cc(C(=O)O)nc4c3c(C3CCC3)nn4-c3ccc(F)cc3)CC2)CCO1 (centres unmarked) [compound 853, 3-cyclobutyl-1-(4-fluorophenyl)-4-{4-[2-(methoxymethyl)morpholin-4-yl]piperidin-1-yl}-1H-pyrazolo[3,4-b]pyridine-6-carboxylic acid]	509.5%	6.75	290.9%	6.58
CN(C1CCOCC1)C1CCN(c2cc(C(=O)O)nc3c2c(C2CCC2)nn3-c2ccc(F)cc2)CC1 [compound 854, 3-cyclobutyl-1-(4-fluorophenyl)-4-{4-[methyl(oxan-4-yl)amino]piperidin-1-yl}-1H-pyrazolo[3,4-b]pyridine-6-carboxylic acid]	380.7%	5.48	131.1%	5.68
CC(C)Oc1cc(-n2nc(C3CCC3)c3c(N4CCC(N5CCOCC5)CC4)cc(C(=O)O)nc32)ccn1 [compound 855, 3-cyclobutyl-4-[4-(morpholin-4-yl)piperidin-1-yl]-1-{2-[(propan-2-yl)oxy]pyridin-4-yl}-1H-pyrazolo[3,4-b]pyridine-6-carboxylic acid]	490.9%	7.06	304.2%	6.70
O=C(O)c1cc(N2CCC(N3CCOCC3)CC2)c2c(C3CCC3)nn(-c3ccnc(OCc4ccccc4)c3)c2n1 [compound 856, 1-[2-(benzyloxy)pyridin-4-yl]-3-cyclobutyl-4-[4-(morpholin-4-yl)piperidin-1-yl]-1H-pyrazolo[3,4-b]pyridine-6-carboxylic acid]	416.9%	7.05	230.7%	6.61
O=C(O)c1cc(CN2CCOCC2)c2c(C3CCC3)nn(-c3ccc(F)cc3)c2n1 [compound 857, 3-cyclobutyl-1-(4-fluorophenyl)-4-[(morpholin-4-yl)methyl]-1H-pyrazolo[3,4-b]pyridine-6-carboxylic acid]	232.2%	5.61	60.01%	5.48
CN1CCN(Cc2cc(C(=O)O)nc3c2c(C2CCC2)nn3-c2ccc(F)cc2)CC1 [compound 858, 3-cyclobutyl-1-(4-fluorophenyl)-4-[(4-methylpiperazin-1-yl)methyl]-1H-pyrazolo[3,4-b]pyridine-6-carboxylic acid]	168.6%	5.50	29.24%	–
COCC1CCN(Cc2cc(C(=O)O)nc3c2c(C2CCC2)nn3-c2ccc(F)cc2)CC1 [compound 859, 3-cyclobutyl-1-(4-fluorophenyl)-4-{[4-(methoxymethyl)piperidin-1-yl]methyl}-1H-pyrazolo[3,4-b]pyridine-6-carboxylic acid]	291.4%	5.59	89.07%	5.65
N#CC1CCN(C2CCN(c3cc(C(=O)O)nc4c3c(C3CCC3)nn4-c3ccc(F)cc3)CC2)CC1 [compound 860, 4-(4-cyano[1,4′-bipiperidin]-1′-yl)-3-cyclobutyl-1-(4-fluorophenyl)-1H-pyrazolo[3,4-b]pyridine-6-carboxylic acid]	576.25%	6.38	383%	6.29
CC(C)Oc1nn(C2CCCCC2)c2nc(C(=O)O)cc(-c3ccc(C(=O)N4CCC(N(C)C)CC4)cc3)c12 [compound 861, 1-cyclohexyl-4-{4-[4-(dimethylamino)piperidine-1-carbonyl]phenyl}-3-[(propan-2-yl)oxy]-1H-pyrazolo[3,4-b]pyridine-6-carboxylic acid]	155.4%	–	31.08%	–
O=C(O)c1cc(N2CCC3(CC2)CC(N2CCCC2)CO3)c2c(C3CCC3)nn(-c3ccc(F)cc3)c2n1 (centres unmarked) [compound 862, 3-cyclobutyl-1-(4-fluorophenyl)-4-[3-(pyrrolidin-1-yl)-1-oxa-8-azaspiro[4.5]decan-8-yl]-1H-pyrazolo[3,4-b]pyridine-6-carboxylic acid]	359.6%	6.20	186.5%	6.20
CC(C)Oc1nn(C2CCCCC2)c2nc(C(=O)O)cc(-c3ccc(N4CCN(C(C)C)CC4)cc3)c12 [compound 863, 1-cyclohexyl-3-[(propan-2-yl)oxy]-4-{4-[4-(propan-2-yl)piperazin-1-yl]phenyl}-1H-pyrazolo[3,4-b]pyridine-6-carboxylic acid]	320.9%	6.43	156.35%	6.30
Cc1cc(N2CCN(c3cc(C(=O)O)nc4c3c(C3CCC3)nn4C3CCCCC3)CC2)ccn1 [compound 864, 3-cyclobutyl-1-cyclohexyl-4-[4-(2-methylpyridin-4-yl)piperazin-1-yl]-1H-pyrazolo[3,4-b]pyridine-6-carboxylic acid]	458.6%	6.98	337.7%	6.00
CC(C)N1CCN(c2ccc(-c3cc(C(=O)O)nc4c3c(C3CCC3)nn4C3CCCCC3)cn2)CC1 [compound 865, 3-cyclobutyl-1-cyclohexyl-4-{6-[4-(propan-2-yl)piperazin-1-yl]pyridin-3-yl}-1H-pyrazolo[3,4-b]pyridine-6-carboxylic acid]	306.8%	5.95	146.9%	6.36
CC(c1ccc(-c2cc(C(=O)O)nc3c2c(C2CCC2)nn3C2CCCCC2)cc1)N1CCOCC1 (centres unmarked) [compound 866, 3-cyclobutyl-1-cyclohexyl-4-{4-[1-(morpholin-4-yl)ethyl]phenyl}-1H-pyrazolo[3,4-b]pyridine-6-carboxylic acid]	298.3%	6.82	99.71%	6.56
CC(C)N1CCN(c2ccc(-c3cc(C(=O)O)nc4c3c(C3CCC3)nn4C3CCCCC3)cc2)CC1 [compound 867, 3-cyclobutyl-1-cyclohexyl-4-{4-[4-(propan-2-yl)piperazin-1-yl]phenyl}-1H-pyrazolo[3,4-b]pyridine-6-carboxylic acid]	290.65%	6.50	125.2%	5.85
O=C(O)c1cc(-c2ccc(N3CCN(C4CC4)CC3)nc2)c2c(C3CCC3)nn(C3CCCCC3)c2n1 [compound 868, 3-Cyclobutyl-1-cyclohexyl-4-[6-(4-cyclopropylpiperazin-1-yl)-pyridin-3-yl]-1H-pyrazolo[3,4-b]pyridine-6-carboxylic acid]	337.8%	6.75	140.3%	6.62
O=C(O)c1cc(N2CCC(N3CCC(C(F)(F)F)C3)CC2)c2c(C3CCC3)nn(-c3ccc(F)cc3)c2n1 (centres unmarked) [compound 869]	513.05%	7.42	299.1%	6.95
